In brackets after ≈: the same amount, converted by molar mass.
Assays:
[1] = Electrochemical oxidation potential measurement, SHACV / fast scan CV; type: physicochemical; settings: Table XIX; oxidation potential vs. Ag/AgCl; in V (unit assumed)
Excerpt: If a published reduction potential is not available, suitable techniques for measuring reduction potential are available. Accurate electrochemical oxidation and reduction potentials for these organic dyes can be measured by the techniques of fast scan cyclic voltommetry (CV) or second harmonic ac voltommetry (SHACV). SHACV measurements are made as described by Lenhard in the Journal of Imaging Science volume 30, 1986 pp 27-35 using a commercially available (Princeton Applied Research Corp.) potentiostat in conjunction with voltage programmer, a conventional lock-in amplifier, and a low-distortion oscillator. The SHACV method utilizes an ac voltage waveform (of a frequency greater than or equal to 400 hz) that is superimposed on a DC potential ramp. On the other hand, the measurement of the oxidation or reduction potential by the CV method utilizes a (high frequency) triangular voltage waveform. The general procedures for measuring potentials by this method have been described by Wightman in Analytical Chemistry, 1984, vol. 56, pp524 and Journal of Physical Chemistry, 1984, vol. 88, pp3915. The specific application of this technique to the measurement of cyanine dye potentials has been reported by Nomura and Okazaki, Chemistry Letters, 1990, pp2231-2234. Commercial instrumentation especially designed for fast scan (i.e., high frequency) CV is available. It is noteworthy that because of the complicated nature of many of the cyanine dyes, electrochemical reactions, conventional slow scan cyclic voltommetry or polarography methods (as described by R. Large in Photographic Sensitivity, R. Cox, ed., Academic Press, New York, 1973, pp 241-263) provide only approximate values for oxidation and reduction potentials. Errors as large as 0.4 V from the true potential can be obtained by using slow scan CV or electrochemical methods.
The procedure for measuring the oxidation or reduction potential by the SHACV or fast scan CV method utilizes solutions of acetonitrile (or similar nonaqueous solvent) with added tetrabutylammonium tetrafluoroborate TBABF4 at a concentration of 0.1 M and ca. 5×10^−4 M of the cyanine, oxonol, or merocyanine dye. For measurement of the reduction potential the solution must be deaerated with argon prior to examination. The preferred working electrode is a Pt disk (ca. 0.02 cm^2) that is polished with 1 μm diamond paste, rinsed with water, and dried before each experiment. The reference electrode is a NaCl saturated calomel electrode. The cell and reference electrodes are maintained at 22 C. A value of 40 mV is added to the measured potentials to convert the number to that corresponding to an Ag/AgCl reference electrode. If a solvent other than acetonitrile is used then the measured potential must be referenced to a standard organic redox system such as ferrocene and corrected accordingly.
The procedure for measuring the oxidation or reduction potential by the SHACV method utilizes solutions of acetonitrile (or similar nonaqueous solvent) with added tetrabutylammonium tetrafluoroborate TBABF4 at a concentration of 0.1 M and ca. 5×10^−4 M of the cyanine, oxonol, or merocyanine dye. […] A value of 40 mV is added to the measured potentials to convert the number to that corresponding to an Ag/AgCl reference electrode. If a solvent other than acetonitrile is used then the measured potential must be referenced to a standard organic redox system such as ferrocene and corrected accordingly.

[2] = tested on: CRL 1420 Human Pancreatic Carcinoma; test: Initial in vitro screening, pancreatic carcinoma cells; type: cell-based; settings: for Selectivity: IC50 CV-1 / IC50 cell line 4 (pancreatic carcinoma); for IC50: read-out: IC50 (concentration at which 50% of the cells of the culture are killed)
Excerpt: (§1) Other publications have shown that some cyanine dyes show anti-cancer activity. See I. Minami, Y. Kozai, H. Nomura and T. Tashiro, Chem. Phar. Bull. 30:3106 (1982); W. M. Anderson, D. L. Delinick, L. Benninger, J. M. Wood, S. T. Smiley and L. B. Chen, Biochemical Pharmacology, 45:691 (1993). […] (See L. G. S. Brooker, L. A. Sweet, Science, 105, (1947) and I. Minami, Y. Kozai, H. Nomura, T. Tashiro, Chem. Pharm. Bull., 30,3106 (1982) on chemotherapeutic investigations of cyanine dyes.) Table I lists initial in vitro screening results in various cell lines and a comparison with Adriamycin, which is a widely used chemotherapeutic agent.
(§2) Description of Cell Line • 1. CV-1 Normal Monkey Kidney Epithelial (control) • 2. CX-1 Human Colon Carcinoma • 3. Human Breast Carcinoma • 4. Human Pancreatic Carcinoma • 5. Human Bladder Carcinoma • 6. Human Lung Carcinoma • 7. Human Squamous Cell Carcinoma • 8. Human Adrenal Cortex Carcinoma

[3] = tested on: CCL 185 Human Lung Carcinoma; test: Initial in vitro screening, lung carcinoma cells; type: cell-based; settings: for Selectivity: IC50 CV-1 / IC50 cell line 6 (lung carcinoma); for IC50: read-out: IC50 (concentration at which 50% of the cells of the culture are killed)
Excerpt: as §1, §2

[4] = cell line 4, CRL 1420 human pancreatic carcinoma, unit from method
[5] = cell line 6, CCL 185 human lung carcinoma, unit from method

SMILES	Eox [1]	Selectivity [2]	IC50 [2, 4]	Selectivity [3]	IC50 [3, 5]	IC50 (concentration at which 50% of the cells of the culture are killed) [2, 4]	IC50 (concentration at which 50% of the cells of the culture are killed) [3, 5]
CCN1C(=CC=Cc2sc3cc4ccccc4nc3[n+]2CC)Sc2cc3ccccc3nc21 [Dye D-150]	1.145	100	0.03 µg/mL	150	0.02 µg/mL		
CCN1/C(=C/C=C/c2sc3ccccc3[n+]2CC)Sc2ccccc21.[I-] [Dye D-101]	0.902	100		50			
CCN1C(=CC=Cc2sc3cc4ccccc4cc3[n+]2CC)Sc2cc3ccccc3cc21 [AC-2]		>60		>60		<.005 µg/mL	<.005 µg/mL
CCN1/C(=C\C=C\C2=[N+](CC)c3ccccc3C2(C)C)C(C)(C)c2ccccc21 [Dye D-103]	1.088						
COc1cccc2c1C(=O)c1c(O)c3c(c(O)c1C2=O)C[C@@](O)(C(=O)CO)C[C@@H]3O[C@H]1C[C@H](N)[C@H](O)[C@H](C)O1 [Adriamycin, reference compound]		13	0.06 µg/mL (≈ 0.11 µM)	11	0.07 µg/mL (≈ 0.129 µM)		
CCN1/C(=C/C=C/c2sc3cc4ccccc4cc3[n+]2CC)Sc2cc3ccccc3cc21 [Dye D-160]	1.015		< 0.005 µg/mL		< 0.005 µg/mL		
CCN1/C(=C/C=C/c2sc3cc4ccccc4cc3[n+]2CC)Sc2cc3ccccc3cc21 [Dye D-109]	1.015						
